The values below come from BindingDB's records for doi:10.1016/0960-894X(96)00232-6 (1996).

Structures are written as SMILES.

Assay [1] in a line: Inhibition of ET- 1 stimulated arachidonic acid release (AAR) in cultured rabbit renal vascular smooth muscle cells expressing the endothelin A receptor.
Assay [2] in a line: Inhibition of ET- 1 stimulated arachidonic acid release (AAR) in cultured rabbit renal vascular smooth muscle cells expressing the endothelin B receptor.
Assay [3] can be described thus: Compound was evaluated for the receptor binding activity in rabbit artery vascular smooth muscle cells expressing Endothelin A receptor.

`COc1cc2c(Sc3ccc4c(c3)OCO4)c(C(=O)O)n(Cc3ccc4c(c3)OCO4)c2cc1OCc1ccccc1` [1-Benzo[1,3]dioxol-5-ylmethyl-3-(benzo[1,3]dioxol-5-ylsulfanyl)-6-benzyloxy-5-methoxy-1H-indole-2-carboxylic acid]: the IC50 in assay [1] came out at 3.4 µM; in assay [2] it was 0.74 µM.

`COc1cccc(Sc2c(C(=O)O)sc3ccccc23)c1` [3-(3-Methoxy-phenylsulfanyl)-benzo[b]thiophene-2-carboxylic acid]: the concentration for half-maximal inhibition (IC50) in assay [3] stood at 5.9 µM. This counts as single-digit micromolar.

With `COc1cccc(Sc2c(C(=O)O)oc3ccccc23)c1` [3-(3-Methoxy-phenylsulfanyl)-benzofuran-2-carboxylic acid], the IC50 in assay [3] was 23 µM.

In assay [1], `COc1ccc(Sc2c(C(=O)O)n(Cc3ccc4c(c3)OCO4)c3cc4c(cc23)OCO4)cc1OC` [5-Benzo[1,3]dioxol-5-ylmethyl-7-(3,4-dimethoxy-phenylsulfanyl)-5H-[1,3]dioxolo[4,5-f]indole-6-carboxylic acid] came in with a concentration for half-maximal inhibition (IC50) of 0.065 µM.

As a reminder, the IC50 is the concentration at which inhibition is half-maximal. High values mean weaker potency, low ones greater potency.
